Assay results reported in patent publication US6706663B2, “Herbicidal 3-heterocyclic substituted benzisothiazole and benzisoxazole compounds” (Wyeth, priority 2000, dated 2004).

What was measured:
[1] = tested on: GLXMAW (Soybean, Williams); assay: Preemergence herbicidal evaluation; format: in vivo, Glycine max, (L.) Merr. cv Williams; conditions: preemergence, rated 4-5 weeks after treatment
[2] = tested on: ECHORC (Echinochloa oryzoides); assay: Flooded paddy, preemergence weed control; format: in vivo, Echinochloa oryzoides (Ard.) Fritsch.; conditions: rated 3-4 weeks after treatment, 0-9 rating scale
Method in brief: (§1)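 Under paddy conditions, seeds or vegetative propagules go into the top 0.5 cm of silt loam; the soil is then flooded to 1.5–3 cm and kept so. Treated pots stay in a greenhouse; response is rated 0-9 visually versus control.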

[3] = tested on: ECHCG (Echinochloa crus-galli); assay: Preemergence herbicidal evaluation; format: in vivo, (L.) Beau; conditions: preemergence, rated 4-5 weeks after treatment
Method in brief: (§2)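 Each species was sown separately in potting soil over roughly one inch of soil, and the surface sprayed with compound dissolved in aqueous acetone. Assessment used a 0–9 visual scale against a control after four to five weeks.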

[4] = tested on: SETVI (Setaria viridis); assay: Preemergence herbicidal evaluation; format: in vivo, (L.) Beau; conditions: preemergence, rated 4-5 weeks after treatment
Method in brief: as §2

[5] = tested on: CYPIR (Cyperus iria); assay: Flooded paddy, preemergence weed control; format: in vivo; conditions: rated 3-4 weeks after treatment, 0-9 rating scale
Method in brief: as §1

[6] = tested on: IPOHE (Ipomoea hederacea); assay: Postemergence herbicidal evaluation; format: in vivo, (L.) Jacq.
Method in brief: (§3)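 Seedlings grown for about two weeks were sprayed postemergence and then kept under standard greenhouse care. Injury was rated visually 4–5 weeks after treatment on a 0–9 scale against untreated controls, and ratings from repeat tests were averaged.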

[7] = tested on: MOOVA (Monochoria vaginalis); assay: Flooded paddy, preemergence weed control; format: in vivo, Presl.; conditions: rated 3-4 weeks after treatment, 0-9 rating scale
Method in brief: as §1

[8] = tested on: ZEAMX (Corn, Field); assay: Preemergence herbicidal evaluation; format: in vivo, Zea mays, L.; conditions: preemergence, rated 4-5 weeks after treatment
[9] = tested on: SETVI (Setaria viridis); assay: Postemergence herbicidal evaluation; format: in vivo, (L.) Beau
Method in brief: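 Postemergence foliar spray on two-week-old seedlings, dose equivalent to about 0.0040 to 1.000 kg/ha. Ratings use a 0-9 visual scale relative to control at four to five weeks.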

[10] = tested on: TRZAWR (Wheat, Winter, cv Riband); assay: Postemergence herbicidal evaluation; format: in vivo, Triticum aestivum
Method in brief: as §3

| Compound | GLXMAW preemergence herbicidal rating ([1]; Rate 0.0620 kg/ha) | GLXMAW preemergence herbicidal rating ([1]; Rate 0.1250 kg/ha) | GLXMAW preemergence herbicidal rating ([1]; Rate 0.2500 kg/ha) | herbicidal rating, ECHORC ([2]; rate 0.0320 kg/ha) | herbicidal rating, ECHORC ([2]; rate 0.1250 kg/ha) | ECHCG preemergence herbicidal rating ([3]; Rate 0.0620 kg/ha) | ECHCG preemergence herbicidal rating ([3]; Rate 0.1250 kg/ha) | ECHCG preemergence herbicidal rating ([3]; Rate 0.2500 kg/ha) | SETVI preemergence herbicidal rating ([4]; Rate 0.0620 kg/ha) | SETVI preemergence herbicidal rating ([4]; Rate 0.1250 kg/ha) | SETVI preemergence herbicidal rating ([4]; Rate 0.2500 kg/ha) | herbicidal rating, CYPIR ([5]; rate 0.0320 kg/ha) | herbicidal rating, CYPIR ([5]; rate 0.1250 kg/ha) | Postemergence herbicidal rating, IPOHE ([6]; rate 0.0320 kg/ha) | Postemergence herbicidal rating, IPOHE ([6]; rate 0.0620 kg/ha) | herbicidal rating, MOOVA ([7]; rate 0.0320 kg/ha) | herbicidal rating, MOOVA ([7]; rate 0.1250 kg/ha) | ZEAMX preemergence herbicidal rating ([8]; Rate 0.0620 kg/ha) | ZEAMX preemergence herbicidal rating ([8]; Rate 0.1250 kg/ha) | ZEAMX preemergence herbicidal rating ([8]; Rate 0.2500 kg/ha) | other results |
| --- | --- | --- | --- | --- | --- | --- | --- | --- | --- | --- | --- | --- | --- | --- | --- | --- | --- | --- | --- | --- | --- |
| 1-methyl-3-[3-(1,3-oxathiolan-2-yl)-1,2-benzisothiazol-5-yl]-6-(trifluoromethyl)uracil S′,S′-dioxide [Compound 32] | 6.5 | 9.0 | 9.0 | 0.0 | 0.0 | 6.5 | 9.0 | 9.0 | 9.0 | 9.0 | 9.0 | 4.0 | 7.0 | 9.0 | 9.0 | 6.0 | 9.0 | 6.0 | 9.0 | 9.0 | Postemergence herbicidal rating, SETVI ([9]; rate 0.0320 kg/ha): 3.0; Postemergence herbicidal rating, SETVI ([9]; rate 0.0620 kg/ha): 6.0; Postemergence herbicidal rating, TRZAWR ([10]; rate 0.0320 kg/ha): 5.0; Postemergence herbicidal rating, TRZAWR ([10]; rate 0.0620 kg/ha): 5.5 |
| CCOC(=O)C1CS[C@H](c2nsc3ccc(-n4c(=O)cc(C(F)(F)F)n(C)c4=O)cc23)N1 (stereo partly drawn) [Compound 2, ethyl (R)-2-[5-[3,6-dihydro-3-methyl-2,6-dioxo-4-(trifluoromethyl)-1(2H)-pyrimidinyl]-1,2-benzisothiazol-3-yl]-4-thiazolidinecarboxylate] | 5.5 | 8.0 | 8.0 | 0.0 | 2.0 | 2.5 | 6.0 | 8.0 | 8.0 | 8.0 | 9.0 | 0.0 | 2.0 | 9.0 | 9.0 | 6.0 | 9.0 | 3.5 | 6.5 | 7.5 | Postemergence herbicidal rating, SETVI ([9]; rate 0.0320 kg/ha): 6.0; Postemergence herbicidal rating, SETVI ([9]; rate 0.0620 kg/ha): 7.0; Postemergence herbicidal rating, TRZAWR ([10]; rate 0.0320 kg/ha): 5.0; Postemergence herbicidal rating, TRZAWR ([10]; rate 0.0620 kg/ha): 6.5 |
| Cn1c(C(F)(F)F)cc(=O)n(-c2ccc3snc(-c4cccs4)c3c2)c1=O [Compound 3, 1-methyl-3-[3-(2-thienyl)-1,2-benzisothiazol-5-yl]-6-(trifluoromethyl)uracil] | 5.5 | 9.0 | 9.0 | 8.0 | 9.0 | 7.5 | 7.0 | 9.0 | 9.0 | 8.5 | 9.0 | 8.5 | 9.0 | 9.0 | 9.0 | 9.0 | 9.0 | 6.5 | 6.5 | 7.0 | herbicidal rating, ECHORC ([2]; rate 0.0080 kg/ha): 2.0; herbicidal rating, CYPIR ([5]; rate 0.0080 kg/ha): 0.0; Postemergence herbicidal rating, IPOHE ([6]; rate 0.1250 kg/ha): 9.0; herbicidal rating, MOOVA ([7]; rate 0.0080 kg/ha): 9.0; Postemergence herbicidal rating, SETVI ([9]; rate 0.0320 kg/ha): 3.0; Postemergence herbicidal rating, SETVI ([9]; rate 0.0620 kg/ha): 9.0; Postemergence herbicidal rating, SETVI ([9]; rate 0.1250 kg/ha): 9.0; Postemergence herbicidal rating, TRZAWR ([10]; rate 0.0320 kg/ha): 2.5; Postemergence herbicidal rating, TRZAWR ([10]; rate 0.0620 kg/ha): 4.5; Postemergence herbicidal rating, TRZAWR ([10]; rate 0.1250 kg/ha): 5.0 |
| Cc1ccsc1-c1nsc2ccc(-n3c(=O)cc(C(F)(F)F)n(C)c3=O)cc12 [Compound 4, 1-methyl-3-[3-(3-methyl-2-thienyl)-1,2-benzisothiazol-5-yl]-6-(trifluoromethyl)uracil] | 2.7 | 4.4 | 6.0 | 9.0 | 9.0 | 7.0 | 8.3 | 9.0 | 8.8 | 9.0 | 9.0 | 9.0 | 9.0 | 8.6 | 9.0 | 9.0 | 9.0 | 3.2 | 4.2 | 5.4 | herbicidal rating, ECHORC ([2]; rate 0.0080 kg/ha): 4.0; herbicidal rating, CYPIR ([5]; rate 0.0080 kg/ha): 2.0; Postemergence herbicidal rating, IPOHE ([6]; rate 0.1250 kg/ha): 9.0; herbicidal rating, MOOVA ([7]; rate 0.0080 kg/ha): 9.0; Postemergence herbicidal rating, SETVI ([9]; rate 0.0320 kg/ha): 5.0; Postemergence herbicidal rating, SETVI ([9]; rate 0.0620 kg/ha): 6.3; Postemergence herbicidal rating, SETVI ([9]; rate 0.1250 kg/ha): 7.3; Postemergence herbicidal rating, TRZAWR ([10]; rate 0.0320 kg/ha): 3.7; Postemergence herbicidal rating, TRZAWR ([10]; rate 0.0620 kg/ha): 4.2; Postemergence herbicidal rating, TRZAWR ([10]; rate 0.1250 kg/ha): 5.2 |
| Cn1ccnc1-c1nsc2ccc(-n3c(=O)cc(C(F)(F)F)n(C)c3=O)cc12 [Compound 5, 1-methyl-3-[3-(1-methylimidazol-2-yl)-1,2-benzisothiazol-5-yl]-6-(trifluoromethyl)uracil] | 2.0 | 3.5 | 6.5 | 0.0 | 2.0 | 2.5 | 8.0 | 9.0 | 9.0 | 9.0 | 9.0 | 0.0 | 7.0 | 9.0 | 9.0 | 2.0 | 9.0 | 4.0 | 6.5 | 7.0 | Postemergence herbicidal rating, SETVI ([9]; rate 0.0320 kg/ha): 0.0; Postemergence herbicidal rating, SETVI ([9]; rate 0.0620 kg/ha): 1.0; Postemergence herbicidal rating, TRZAWR ([10]; rate 0.0320 kg/ha): 2.5; Postemergence herbicidal rating, TRZAWR ([10]; rate 0.0620 kg/ha): 3.5 |
| Cc1csc(-c2nsc3ccc(-n4c(=O)cc(C(F)(F)F)n(C)c4=O)cc23)n1 [Compound 7, 1-methyl-3-[3-(4-methyl-2-thiazolyl)-1,2-benzisothiazol-5-yl]-6-(trifluoromethyl)uracil] | 0.0 | 0.0 | 2.0 | 5.0 | 9.0 | 0.0 | 3.0 | 3.0 | 9.0 | 9.0 | 9.0 | 8.5 | 9.0 | 2.0 | 9.0 | 9.0 | 9.0 | 0.0 | 4.0 | 8.0 | herbicidal rating, ECHORC ([2]; rate 0.0080 kg/ha): 0.0; herbicidal rating, CYPIR ([5]; rate 0.0080 kg/ha): 7.0; Postemergence herbicidal rating, IPOHE ([6]; rate 0.1250 kg/ha): 9.0; herbicidal rating, MOOVA ([7]; rate 0.0080 kg/ha): 9.0; Postemergence herbicidal rating, SETVI ([9]; rate 0.0320 kg/ha): 0.0; Postemergence herbicidal rating, SETVI ([9]; rate 0.0620 kg/ha): 0.0; Postemergence herbicidal rating, SETVI ([9]; rate 0.1250 kg/ha): 2.0; Postemergence herbicidal rating, TRZAWR ([10]; rate 0.0320 kg/ha): 4.5; Postemergence herbicidal rating, TRZAWR ([10]; rate 0.0620 kg/ha): 5.5; Postemergence herbicidal rating, TRZAWR ([10]; rate 0.1250 kg/ha): 6.0 |
